Experimental findings from PubChem BioAssay AID2842 (Southern Research Institute, 2010) are described below.

The structures appear in SMILES notation. In brackets after ≈: the same amount, converted by molar mass. Where only a bound is given, the exact number is not on record here.

For the test, the system named is M. tuberculosis H37Rv growth inhibition. The experiment in a line: Mycobacterium tuberculosis H37Rv growth inhibition, putative kinase inhibitor library, confirmatory dose response (AID 2842).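 Also: bacteria incubated one week before Alamar blue readout.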

Consider `CCc1ccc(-c2nnc3c4cc(OC)c(OC)cc4n(Cc4ccccc4F)cc2-3)cc1`, for which the IC90 was 8.11 µg/mL (≈ 18.4 µM).
Under `COc1cc2c3nnc(-c4ccc(C)cc4)c-3cn(Cc3cccc(C)c3)c2cc1OC` stands 28.3 µg/mL (≈ 66.9 µM); under `O=C(Nc1nnc(-c2ccc3c(c2)CCCC3)o1)c1ccc(Cl)s1`, 3.63 µg/mL (≈ 10.1 µM).
The figure for `CCN1CCc2c(sc(NC(=O)c3ccc([N+](=O)[O-])o3)c2C(N)=O)C1` is 6.91 µg/mL (≈ 19 µM).
Under `COc1ccccc1-c1cnn2c(NC3CCCCC3)cc(C)nc12` stands 13.5 µg/mL (≈ 40.2 µM).
Regarding `Cc1ccc(-c2nnc(NC(=O)c3ccc([N+](=O)[O-])o3)o2)c(C)c1`, the IC90 was 0.69 µg/mL (≈ 2.1 µM).
The figure for `CC(C)C(=O)Nc1nnc(-c2cc(Cl)ccc2Cl)o1` is 26.9 µg/mL (≈ 89.5 µM); for `CCOC(=O)Cn1c(=NC(=O)c2ccc([N+](=O)[O-])s2)sc2cc(S(C)(=O)=O)ccc21` it is 21.8 µg/mL (≈ 46.5 µM); for `COc1cc(/C=C(\C#N)c2nc(-c3ccccc3)cs2)cc([N+](=O)[O-])c1O` it is 54.6 µg/mL (≈ 144 µM).
Under `COc1ccc(-n2nnc3c(SCC(N)=O)ncnc32)cc1` stands 5.67 µg/mL (≈ 17.9 µM); under `O=C(OCn1nnc2ccccc2c1=O)c1ccccc1`, 1.41 µg/mL (≈ 5.01 µM).
As to `COC(=O)CSc1ncnc2c1nnn2Cc1ccc(F)cc1`, the 90% effect concentration (IC90) is 1.55 µg/mL (≈ 4.65 µM).
In the case of `COc1cccc2sc(Nc3nnc(-c4ccccc4)o3)nc12`, the 90% effect concentration (IC90) is 6.08 µg/mL (≈ 18.7 µM).
For `CCOc1cc(-c2nnc(NC(=O)C(C)C)o2)cc(OCC)c1OCC`, the 90% effect concentration (IC90) was 9.11 µg/mL (≈ 25.1 µM).
The figure for `Oc1ccc(Br)cc1C1CC(c2ccoc2)=NN1` (stereo not given) is 25.3 µg/mL (≈ 82.4 µM); for `COc1ccc(C(=O)NNc2nc3cc(C)cc(C)c3s2)cc1` it is 38.8 µg/mL (≈ 118 µM).
The figure for `CC(C)N1CCc2c(sc(NC(=O)c3ccc(Oc4ccccc4)cc3)c2C(N)=O)C1` is 12.5 µg/mL (≈ 28.7 µM); for `COc1cccc(C(=O)Nc2nc3c(s2)CCc2ccccc2-3)c1` it is 11.3 µg/mL (≈ 33.6 µM); for `COc1ccc(C)c2sc(NNC(=O)c3ccccc3)nc12` it is 4.03 µg/mL (≈ 12.9 µM).
Under `O=C1N/C(=N\N=C\c2ccccc2O)SC1Cc1cc(Cl)ccc1Cl` (stereo not given) stands 4.52 µg/mL (≈ 11.5 µM); under `CCOC(CNc1ncnc2c1cnn2-c1ccc(C)c(C)c1)OCC`, 21.8 µg/mL (≈ 61.4 µM); under `COc1ccccc1Cn1cc2c(-c3ccc(F)cc3)nnc-2c2cc(OC)c(OC)cc21`, 22 µg/mL (≈ 49.7 µM).
On to `Cc1ccc(C)c(-c2nnc(NC(=O)c3cccc(Br)c3)o2)c1`, for which the IC90 is 12.6 µg/mL (≈ 33.9 µM).
Regarding `CCOc1ccc2nc(N3CCCC3)sc2c1`, the IC90 is 17.2 µg/mL (≈ 69.3 µM).
The figure for `Cc1ccc(C)c(-c2nnc(NC(=O)c3ccccc3S(C)(=O)=O)o2)c1` is 19.3 µg/mL (≈ 52 µM); for `Cc1[nH]c2ccccc2c1/C=N/NC(=O)c1cc(-c2ccc(Br)s2)[nH]n1` it is 12.2 µg/mL (≈ 28.6 µM).
The figure for `CCCCC(=O)Nc1nnc(-c2cc(Cl)ccc2Cl)o1` is 32.4 µg/mL (≈ 103 µM); for `CC(=O)N1CCc2c(sc(NC(=O)C(C)C)c2-c2nc3ccccc3s2)C1` it is 13.5 µg/mL (≈ 33.7 µM).
The figure for `COc1ccccc1C(=O)Nc1nnc(-c2ccccc2Cl)o1` is 3.23 µg/mL (≈ 9.8 µM); for `Clc1ccc(Cn2nnc3c(SCc4cccnc4)ncnc32)cc1` it is 13.4 µg/mL (≈ 36.3 µM); for `O=C(Cc1cccc2ccccc12)Nc1nnc(-c2ccco2)o1` it is 6.89 µg/mL (≈ 21.6 µM).
Consider `COc1ccc2nc(N(CCCn3ccnc3)C(=O)c3cccc(OC)c3OC)sc2c1`, for which the IC90 is 11.3 µg/mL (≈ 24.9 µM).
Turning to `CCOC(=O)c1ccc2nc(NC(=O)C(C)C)sc2c1`, the 90% effect concentration (IC90) was 19.5 µg/mL (≈ 66.5 µM).
Under `COc1cccc(C(=O)Nc2nc(-c3cccs3)cs2)c1` stands 19.5 µg/mL (≈ 61.5 µM); under `COc1cc(C2C3=C(CC(C)(C)CC3=O)Nc3ncnn32)ccc1OCc1ccc(Cl)c(Cl)c1` (stereo not given), 6.77 µg/mL (≈ 13.6 µM); under `COc1ccc(OCc2nc(C#N)c(NCc3ccc(C)cc3)o2)cc1`, 12.1 µg/mL (≈ 34.7 µM).
`CCCCOc1ccc(C(=O)Nc2nnc(-c3ccccn3)o2)cc1`: the IC90 is 11.6 µg/mL (≈ 34.3 µM).
Under `O=C(Nc1cccc(Br)c1)c1ccc([N+](=O)[O-])s1` stands below 0.2 µg/mL.
The figure for `Cc1cccc(C(=O)Nc2nnc(-c3ccccn3)o2)c1` is 19.3 µg/mL (≈ 68.8 µM).
Under `COc1cc2c3nnc(-c4ccc(F)cc4)c-3cn(Cc3ccccc3)c2cc1OC` stands 12 µg/mL (≈ 29 µM).
